{"source": "paper PMC8453635", "about": "“Piperidine Azasugars Bearing Lipophilic Chains: Stereoselective Synthesis and Biological Activity as Inhibitors of Glucocerebrosidase (GCase)” (The Journal of Organic Chemistry, 2021)", "origin": "cited, not measured here", "key": {"[1]": {"system": "N370S mutant enzyme in fibroblasts", "settings": "cited from earlier work"}, "lysosomal GCase": {"target": "lysosomal GCase", "settings": "toward GCase; cited from earlier work"}, "wild-type fibroblasts": {"system": "wild-type fibroblasts", "design": "method as in PMID 32200326", "settings": "cited from earlier work"}, "GCase": {"target": "T1, GCase (Homo sapiens, UniProt P04062)", "T1 construct": "screened toward GCase in leukocytes isolated from healthy donors (controls); from tissue; host or cells: leukocytes isolated from healthy donors, disrupted by sonication", "T1 sequence (P04062 40-536)": "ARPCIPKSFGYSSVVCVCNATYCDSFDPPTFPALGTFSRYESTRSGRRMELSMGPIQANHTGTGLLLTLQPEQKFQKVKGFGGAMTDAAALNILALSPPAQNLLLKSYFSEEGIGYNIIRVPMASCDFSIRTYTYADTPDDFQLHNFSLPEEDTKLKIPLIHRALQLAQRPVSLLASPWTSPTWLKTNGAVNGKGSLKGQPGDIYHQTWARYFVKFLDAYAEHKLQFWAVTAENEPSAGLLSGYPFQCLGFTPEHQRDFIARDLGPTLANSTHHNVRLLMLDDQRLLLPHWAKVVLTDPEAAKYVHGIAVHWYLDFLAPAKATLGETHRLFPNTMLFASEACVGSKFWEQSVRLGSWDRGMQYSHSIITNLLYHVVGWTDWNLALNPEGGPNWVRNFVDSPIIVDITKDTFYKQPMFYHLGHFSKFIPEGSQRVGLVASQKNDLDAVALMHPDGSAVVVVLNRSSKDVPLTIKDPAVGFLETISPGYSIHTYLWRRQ", "settings": "cited from earlier work; for IC50: human leukocytes, same experimental protocol and substrate concentration"}, "L444P variant": {"system": "L444P variant", "design": "method as in PMID 12434014", "settings": "cited from earlier work"}, "[2]": {"target": "T2, GCase in fibroblasts bearing the L444P/L444P mutations (Homo sapiens, UniProt P04062, L483P)", "T2 construct": "fibroblasts derived from Gaucher patients bearing the N370S/RecNcil and L444P/L444P mutations; host or cells: fibroblasts from Gaucher disease patients, L444P/L444P", "T2 sequence (P04062 40-536 L483P)": "T1 sequence (P04062 40-536) with L444P", "design": "method as in PMID 30996807, PMID 32200326", "settings": "homozygous L444P mutation, 100 μM; cited from earlier work"}, "[3]": {"target": "T3, GCase in fibroblasts bearing the N370S/RecNcil mutation (Homo sapiens, UniProt P04062, A495P/L483P/N409S)", "T3 construct": "fibroblasts derived from Gaucher patients bearing the N370S/RecNcil and L444P/L444P mutations; host or cells: fibroblasts from Gaucher disease patients, N370S/RecNcil", "T3 sequence (P04062 40-536 N409S)": "T1 sequence (P04062 40-536) with N370S", "design": "method as in PMID 30996807, PMID 32200326", "settings": "100 μM; cited from earlier work"}}, "note": "Where a chain is given by its changes, count along the chain named. Read-outs that look alike come from different tables or passages of the source."}
{"smiles": "CCCCCCCCC[C@H]1NC[C@@H](O)[C@H](O)[C@H]1O", "note": "[compound 7, α-1-C-nonyl-DIX]", "values": [{"measurement": "enzyme activity increase", "setting": "[1]; N370S mutated fibroblasts at 10 nM", "result": 1.8, "unit": "fold"}, {"measurement": "IC50", "setting": "lysosomal GCase", "result": 0.0068, "unit": "µM"}]}
{"smiles": "CCCCCCCCN1C[C@@H](O)C(O)[C@H](O)C1", "note": "[compound 9]", "values": [{"measurement": "PC activity (enzyme activity enhancement)", "setting": "wild-type fibroblasts; 50 μM", "result": 1.5, "unit": "fold"}, {"measurement": "activity increase", "setting": "[1]; N370S-mutated fibroblasts at 100 μM", "result": 1.25, "unit": "fold"}, {"measurement": "GCase inhibition [%]", "setting": "GCase; human leukocytes extracts incubated with azasugars (1 mM), previously reported compounds", "result": 98, "unit": "%"}, {"measurement": "IC50", "setting": "GCase", "result": "30 ± 1", "unit": "µM"}]}
{"smiles": "CCCCCCCCCN1C[C@H](O)[C@@H](O)[C@H](O)[C@H]1CO", "note": "[compound 5, N-nonyl-DNJ]", "values": [{"measurement": "increase in the activity of the N370S mutant enzyme", "setting": "[1]; fibroblasts, 10 μM concentration", "result": "twofold increase"}, {"measurement": "enhancement of intracellular activity of the L444P variant", "setting": "L444P variant", "result": "did not enhance"}]}
{"smiles": "CCCCCCCC[C@@H]1NC[C@@H](O)[C@@H](O)[C@@H]1O", "note": "[compound 11]", "values": [{"measurement": "IC50", "setting": "GCase; ref 16 and 17", "result": "93.5 ± 5.3", "unit": "µM"}]}
{"smiles": "CCCCCCCC[C@H]1NC[C@@H](O)[C@@H](O)[C@@H]1O", "note": "[compound 12]", "values": [{"measurement": "enzyme recovery", "setting": "[2]", "result": 1.80, "unit": "fold"}, {"measurement": "PC activity (enzyme activity enhancement)", "setting": "wild-type fibroblasts; 100 μM", "result": 1.4, "unit": "fold"}, {"measurement": "IC50", "setting": "GCase; ref 16 and 17", "result": "29.3 ± 1.8", "unit": "µM"}, {"measurement": "enzyme recovery", "setting": "[3]", "result": 1.9, "unit": "fold"}]}
